Tests used:
[1] = tested on: AAD-13 (v1) transformed T1 Arabidopsis; experiment: Postemergence herbicide response of AAD-13 (v1) T1 Arabidopsis; format: in vivo, Arabidopsis thaliana; conditions: 14 DAT
Method: Seven days after planting (DAP) and again 11 DAP, T1 plants (cotyledon and 2-4-lf stage, respectively) were sprayed with a 0.2% solution of Liberty herbicide (200 g ai/L glufosinate, Bayer Crop Sciences, Kansas City, Mo.) at a spray volume of 10 ml/tray (703 L/ha) using a DeVilbiss compressed air spray tip to deliver an effective rate of 280 g ai/ha glufosinate per application. Survivors (plants actively growing) were identified 4-7 days after the final spraying and transplanted individually into 3-inch pots prepared with potting media (Metro Mix 360). Transplanted plants were covered with humidity domes for 3-4 days and placed in a 22° C. growth chamber as before or moved to directly to the greenhouse. Domes were subsequently removed and plants reared in the greenhouse (22±5° C., 50±30% RH, 14 h light:10 dark, minimum 500 μE/m^2s^1 natural+supplemental light) at least 1 day prior to testing for the ability of AAD-13 (v1) to provide phenoxy auxin herbicide resistance.
T1 plants were then randomly assigned to various rates of 2,4-D. For Arabidopsis, 50 g ae/ha 2,4-D is an effective dose to distinguish sensitive plants from ones with meaningful levels of resistance. Elevated rates were also applied to determine relative levels of resistance (280, 560, 1120, or 2240 g ae/ha). Tables 11 and 12 show comparisons drawn to an aryloxyalkanoate herbicide resistance gene (AAD-12 (v1)) previously described in PCT/US2006/042133.
(§1) All auxin herbicide applications were made using the DeVilbiss sprayer as described above to apply 703 L/ha spray volume (0.4 ml solution/3-inch pot) or applied by track sprayer in a 187 L/ha spray volume. 2,4-D used was either technical grade (Sigma, St. Louis, Mo.) dissolved in DMSO and diluted in water (<1% DMSO final concentration) or the commercial dimethylamine salt formulation (456 g ae/L, NuFarm, St Joseph, Mo.). Dichlorprop used was commercial grade formulated as potassium salt of R-dichlorprop (600 g ai/L, AH Marks). As herbicide rates increased beyond 800 g ae/ha, the pH of the spray solution became exceedingly acidic, burning the leaves of young, tender Arabidopsis plants and complicating evaluation of the primary effects of the herbicides.
The first Arabidopsis transformations were conducted using AAD-13 (v1) (plant optimized gene). T1 transformants were first selected from the background of untransformed seed using a glufosinate selection scheme. Over 160,000 T1 seed were screened and 238 glufosinate resistant plants were identified (PAT gene), equating to a transformation/selection frequency of 0.15% which lies in the normal range of selection frequency of constructs where PAT+Liberty are used for selection. T1 plants selected above were subsequently transplanted to individual pots and sprayed with various rates of commercial aryloxyalkanoate herbicides. Table 11 compares the response of AAD-13 (v1) and control genes to impart 2,4-D resistance to Arabidopsis T1 transformants. Response is presented in terms of % visual injury 2 WAT. […] An arithmetic mean and standard deviation is presented for each treatment. The range in individual response is also indicated in the last column for each rate and transformation. PAT/Cry1F-transformed Arabidopsis served as an auxin-sensitive transformed control. The AAD-13 (v1) gene imparted herbicide resistance to individual T1 Arabidopsis plants. Within a given treatment, the level of plant response varied greatly and can be attributed to the fact each plant represents an independent transformation event. Of important note, at each 2,4-D rate tested, there were individuals that were unaffected while some were severely affected. […] At high rates the spray solution becomes highly acidic unless buffered therefore some of the injury may be attributed to the acidity of the spray solution. Arabidopsis grown mostly in the growth chamber has a very thin cuticle and severe burning effects can complicate testing at these elevated rates. […]

[2] = tested on: Wildtype (untransformed control) Arabidopsis; experiment: R-dichlorprop response of wildtype Arabidopsis; format: in vivo, Arabidopsis thaliana; conditions: 800 g ae/ha postemergence, 14 DAT
Method: as §1
The fact that AAD-1 (v3) will metabolize R-dichlorprop well enough to impart commercially acceptable tolerance is one distinguishing characteristic that separates the three genes (Table 12 and Example 7 of PCT/US2006/042133 (Wright et al., filed Oct. 27, 2006). AAD-1 and AAD-13 are considered R- and S-specific α-ketoglutarate dioxygenases, respectively.

[3] = tested on: PAT/Cry1F-transformed tobacco; experiment: 2,4-D DMA response of PAT/Cry1F transformed control T0 tobacco; format: in vivo, Nicotiana tabacum; conditions: 14 days after application
Description: (§2) Following the acclimation in the greenhouse T0 plants were then randomly assigned to various rates of 2,4-D DMA ranging from 140 to 2240 g ae/ha at […] increments. For tobacco, 140 g ae/ha 2,4-D is an effective dose to distinguish sensitive plants from ones with meaningful levels of resistance.

[4] = tested on: AAD-13 (v1) gene T0 tobacco plants; experiment: 2,4-D DMA response of AAD-13 (v1) T0 tobacco; format: in vivo, Nicotiana tabacum; conditions: for % Injury 20-40% (individuals) / % Injury <20% (individuals) / % Injury >40% (individuals) / % Injury Ave: 14 days after application
Description: as §2

C[C@@H](Oc1ccc(Cl)cc1Cl)C(=O)O [R-dichloroprop, R-dichlorprop]
% Injury 20-40% (individuals) ([1]; 800 g ae/ha postemergence): 0
% Injury <20% (individuals) ([1]; 800 g ae/ha postemergence): 0
% Injury >40% (individuals) ([1]; 800 g ae/ha postemergence): 20
% Injury Ave ([1]; 800 g ae/ha postemergence): 100%
% Injury 20-40% (individuals) [2]: 0
% Injury <20% (individuals) [2]: 0
% Injury >40% (individuals) [2]: 20
% Injury Ave [2]: 100%

CNC.O=C(O)COc1ccc(Cl)cc1Cl [2,4-D DMA]
% Injury 20-40% (individuals) ([3]; 140 g ae/ha): 1
% Injury <20% (individuals) ([3]; 140 g ae/ha): 0
% Injury >40% (individuals) ([3]; 140 g ae/ha): 2
% Injury Ave ([3]; 140 g ae/ha): 47.0%
% Injury 20-40% (individuals) ([3]; 560 g ae/ha): 0
% Injury <20% (individuals) ([3]; 560 g ae/ha): 0
% Injury >40% (individuals) ([3]; 560 g ae/ha): 3
% Injury Ave ([3]; 560 g ae/ha): 75.0%
% Injury 20-40% (individuals) ([3]; 2240 g ae/ha): 0
% Injury <20% (individuals) ([3]; 2240 g ae/ha): 0
% Injury >40% (individuals) ([3]; 2240 g ae/ha): 3
% Injury Ave ([3]; 2240 g ae/ha): 97.0%
% Injury 20-40% (individuals) ([1]; 280 g ae/ha postemergence): 4
% Injury <20% (individuals) ([1]; 280 g ae/ha postemergence): 12
% Injury >40% (individuals) ([1]; 280 g ae/ha postemergence): 4
% Injury Ave ([1]; 280 g ae/ha postemergence): 21%
% Injury 20-40% (individuals) ([1]; 560 g ae/ha postemergence): 2
% Injury <20% (individuals) ([1]; 560 g ae/ha postemergence): 17
% Injury >40% (individuals) ([1]; 560 g ae/ha postemergence): 0
% Injury Ave ([1]; 560 g ae/ha postemergence): 2%
% Injury 20-40% (individuals) ([1]; 1120 g ae/ha postemergence): 0
% Injury <20% (individuals) ([1]; 1120 g ae/ha postemergence): 20
% Injury >40% (individuals) ([1]; 1120 g ae/ha postemergence): 0
% Injury Ave ([1]; 1120 g ae/ha postemergence): 2%
% Injury 20-40% (individuals) ([1]; 2240 g ae/ha postemergence): 3
% Injury <20% (individuals) ([1]; 2240 g ae/ha postemergence): 14
% Injury >40% (individuals) ([1]; 2240 g ae/ha postemergence): 3
% Injury Ave ([1]; 2240 g ae/ha postemergence): 15%
% Injury 20-40% (individuals) ([4]; 140 g ae/ha): 0
% Injury <20% (individuals) ([4]; 140 g ae/ha): 2
% Injury >40% (individuals) ([4]; 140 g ae/ha): 0
% Injury Ave ([4]; 140 g ae/ha): 8.0%
% Injury 20-40% (individuals) ([4]; 560 g ae/ha): 0
% Injury <20% (individuals) ([4]; 560 g ae/ha): 2
% Injury >40% (individuals) ([4]; 560 g ae/ha): 0
% Injury Ave ([4]; 560 g ae/ha): 3.0%
% Injury 20-40% (individuals) ([4]; 2240 g ae/ha): 0
% Injury <20% (individuals) ([4]; 2240 g ae/ha): 2
% Injury >40% (individuals) ([4]; 2240 g ae/ha): 0
% Injury Ave ([4]; 2240 g ae/ha): 5.0%
rate to which robust tolerance is provided ([4]; T0 tobacco): at least 2240 g ae/ha

From patent publication US9062284B2, “Uses and detection of herbicide resistance genes for resistance to aryloxyalkanoate herbicides” (Dow ArgoSciences LLC, priority 2007, dated 2015)
